Key:
ascite d'Ehrlich [1] = assay: Ehrlich ascites tumour in the mouse, flavopéreirine; format: in vivo, souris SWISS; details: for survie (surviving mice/total): i.p. 2 x 150 µg per day, 10 days from 24 h after inoculation
Experimental: En ce qui concerne l'activité de la flavopéreirine, vis-à-vis des tumeurs ascites d'Ehrlich de la souris, 30 souris SWISS de 20- 22 g ont été inoculées par voie intrapérito néale par 5 x 10^3 cellules ascite d'Ehrlich fraîchement prélevées.
Dix souris ont été gardées témoins et 20 souris ont été traitées 24 heures après l'inoculation par la flavopéreirine à raison de deux fois par jours (2 x 150 µg) par voie intrapéritonéale et pendant 10 jours consécutifs.
Les résultats du tableau VIII ci-après illustrent la survie des animaux pendant trois mois (une survie de plusieurs jours n'est pas prise en considération).

lymphome YC 8 = assay: lymphoma YC 8 of the mouse, flavopéreirine; format: in vivo, souris BALB c; details: for survie (surviving mice/total): i.p. 2 x 150 µg per day, 10 days from 24 h after inoculation
From the text: En ce qui concerne l'activité de la flavopéreirine vis-à-vis du lumphome YC 8 de la souris, 30 souris BALB c de 19-20 g ont été inoculées par voie intrapéritonéale par 10^4 cellules ascitiques du lymphome YC 8 fraîchement prélevées et en pleine division chez la souris.
Dix souris ont été gardées comme témoins et 20 souris ont été traitées 24 heures après inoculation.
La flavopéreirine est dissoute en milieu physiologique tamponné (pH 7,65) et deux injections par voie intrapéritonéale et par jour sont administrées, (2 x 150 µg de flavopéreirine) et ceci pendant 10 jours consécutifs.

Cellules K.B. = assay: cell culture cytotoxicity, cancer cells; format: cell-based
Experimental: (§1) L'effet cytotoxique spécifique, vis-à-vis des cellules tumorales utilisées, ne s'est jamais démenti au cours des très nombreuses expériences effectuées. Par contre, pour effectuer les cellules saines il a fallu des quantités d'alcaloides au moins dix fois plus grandes (plus de 2 mg/ml). (Les cultures de cellules in-vitro sans mycoplàsmes ont été effectuées dans les conditions classiques et en l'absence d'antibiotique qui pourraient fausser les résultats).
(§2) Les cellules cancéreuses et saines utilisées ne contenaient pas de mycoplasmes et le milieu de culture ne contenait pas d'antibiotique, ces derniers pouvant sensibiliser les cellules et par conséquent fausser les résultats.

Cellules Hela = assay: cell culture cytotoxicity, cancer cells; format: cell-based; details: 150 µg dès l'ensemencement (per ml of culture); culture de 3 jours
Experimental: as §1, §2

Cellules L = assay: cell culture cytotoxicity, cancer cells; format: cell-based; details: 150 µg dès l'ensemencement (per ml of culture)
Experimental: as §1, §2

virus de la vaccine = tested on: virus de la vaccine; design: species or system lapin; details: in vivo
[2] = tested on: Cellules "Vero" (cellules de lignée); assay: cell culture cytotoxicity, normal cells; format: cell-based; details: 150 µg dès l'ensemencement (per ml of culture)
Experimental: as §1, §2

cellules cancéreuses = assay: cell culture cytotoxicity, cancer cells as a group; format: cell-based
Experimental: as §1, §2

[3] = tested on: Cellules primaires de reins de singe; assay: cell culture cytotoxicity, normal cells; format: cell-based
Experimental: Des cultures de cellules saines (cellules primaires de reins de singe, cellules de lignée "Vero" et "SIRC") et des cultures de cellules cancéreuses (cellules K.B., cellules Hela, cellules Hep II et cellules L)ont reçu une dose de 200 Mg, soit de serpentine, soit d'alstonine, soit de sempervirine, par ml de culture.
as §1, §2

cellules saines = assay: cell culture cytotoxicity, healthy cells as a group; format: cell-based
Experimental: as §1, §2

virus de la grippe = format: in vivo, souris SWISS; details: doses comparables
cancers du sein = assay: clinical trials in humans, breast cancer cases; format: in vivo, humains
From the text: Toutefois, on a pu constater au cours des essais cliniques sur l'humain que les β-carbolines quaternaires avaient une demi-vie trop courte pour être administrée sous forme galénique mais que, de façon surprenante, on obtenait d'excellents résultats dans le traitement des cancers chez les humains en utilisant une nouvelle forme galénique constituée de microgranules à libération prolongée des p-carbolines quaternaires. Ces microgranules comprennent une âme neutre constituée d'un grain excipient inerte par exemple un ou plusieurs constituants tels que le sacchorose, l'amidon, le talc, la silice désséchante, le lactose et l'acide stéarique, le grain neutre étant muni d'une première couche comprenant la β-carboline quaternaire puis d'une seconde couche extérieure constituée par une enveloppe microporeuse comprenant au moins un polymère naturel et/ou synthétique appartenant à la classe constituée par la gomme laque, la qomme arabique, la gélatine, l'éthylcellulose, l'acétophtalate d2 cellulose, le triacétate de cellulose, le polyoxyéthylèneglycol, les méthacrylates, le copolymère styrène-acrylonitrile et la polyvinylpyrrolidone.
A titre d'exemple, on a reproduit ci-après trois cas significatifs relatifs à.des cancers du sein et pour lesquels on a utilisée la serpentine préparéeselon la nouvelle forme galénique objet de l'invention décrite ci-dessus.

Ascite d'Ehrlich [4] = assay: Ehrlich ascites tumour in the mouse, serpentine, alstonine, cyclophosphamide; format: in vivo, souris blanches Swiss; details: voie sous-cutanée, doses as above
tumeur MS 301 = assay: transplantable mammary cancer of the mouse; format: in vivo, souris de souche Rh0 III; details: 400 ^gg at the tumour implantation site, twice a day for 15 days from day 3; n=10; p : 0,01
From the text: Action sur le cancer mammaire greffable de la souris • - Vingt souris de 18 à 20g, de souche Rh0 III ont été inoculées, par voie sous-cutanée, par 0,8 " d'un extrait de tumeur MS 301, broyé. Dix souris ont été gardées comme témoins; dix autres vaient, le troisième jour après l'inoculation, 400 ^gg d'alstonine au niveau de l'implantation tumorale, deux fois par jour, pendant quinze- jours. Au seizième jour, les souris étaient anesthésiées et sacrifiées, les tumeurs excisées et pesées. • - La même expérience fut effectuée avec la serpentine au lieu d'alstonine.

Ascite d'Ehrlich [5] = assay: Ehrlich ascites tumour in the mouse, serpentine, alstonine, cyclophosphamide; format: in vivo, souris blanches Swiss; details: for survie (surviving mice/total): I.P., serpentine 400 µg par jour, cyclophosphamide 2 ma par jour
From the text: Activité vis-à-vis des tumeurs "Ascite d'Ehrlich" chez la souris - 5 x 10^3 cellules Ascite d'Ehrlich sont inoculées à des souris blanches Swiss de 20-24 g, par voie intrapéritonéale.
Divers traitements furent appliqués dès le quatrième ou le cinquième jour et pendant dix à quinze jours. […] Un net ralentissement du développement des tumeurs est observé, mais les tumeurs repartent après arrêt du traitement dans le cas du cyclophosphamide seul, le redémarrage peut être plus tardif qu'avec la serpentine ou l'alstonine. Par contre, l'association de serpentine (400 µg par jour) et de cyclophosphamide (2 ma par jour) par voie I.P. permet d'obtenir une survie définitive (survie définitive : survie normale pendant trois mois sans perte de poids) et le pourcentage des survivants varie de 80 à 100% (Tableau IV ci-après). Les souris ainsi guéries augmentent normalement de poids et après quatre à six mois celui-ci est de 24-26 g. Leur aspect est absolument normal et rien ne les distingue de souris saines. (Dans les expériences, seule la survie sans récidive est prise en considération).
La figurer, où sont portés en abscisses le nombre de jours de traitement et en ordonnées le poids (en gramme) des souris, montre l'évolution de la tumeur d'Ehrlich chez les souris traitées, soit par la serpentine seule (courbe 2), soit par le cyclophosphamide seul (courbe 3), soit par la serpentine + cyclophosphamide (courbe 4) par voie intra- péritonéale et aux doses indiquées ci-dessus. […] Aucun de ces deux traitements ne permet d'obtenir une survie.définitive. Par contre, le mélange de serpentine et de cyclophosphamide permet d'obtenir une survie définitive.

[6] = 150 µg dès l'ensemencement (per ml of culture)
[7] = 200 µg/ml, en culture de 3 jours dès l'ensemencement
[8] = 200 µg/ml, en culture de 7 jours dès l'ensemencement

## CCc1ccc2c3[nH]c4ccccc4c3cc[n+]2c1 [flavopéreirine]
Ascite d'Ehrlich [1]; day 0
  survie (surviving mice/total): 20/20
Ascite d'Ehrlich [1]; day 24
  survie (surviving mice/total): 17/20
Ascite d'Ehrlich [1]; day 60
  survie (surviving mice/total): 11/20
Ascite d'Ehrlich [1]; day 90
  survie (surviving mice/total): 11/20
Ascite d'Ehrlich [1]; flavopéreirine alone, three months of observation, same results in souris BALB c
  guérison (in words): permet la guérison d'un important pourcentage de souris
Lymphome YC 8; day 0
  survie (surviving mice/total): 20/20
Lymphome YC 8; day 21
  survie (surviving mice/total): 20/20
Lymphome YC 8; day 60
  survie (surviving mice/total): 17/20
Lymphome YC 8; day 90
  survie (surviving mice/total): 17/20
Lymphome YC 8; voie I.P., more than three months of observation
  state of the surviving mice: développement étant tout à fait normal
Lymphome YC 8; voie sous-cutanée, 2 x 150 µg per day, 10 days
  survie de trois mois, share of treated mice: 70-80%
Cellules K.B.; [6]
  destruction des cellules: - Destruction to-tale en 24-48 heures
Cellules K.B.; [7]
  destruction des cellules: Destruction totale en 24-48 heures
Cellules Hela
  destruction des cellules: - Destruction to-tale en 24-48 heures
Cellules L
  destruction des cellules: - Destruction to-tale en 24-48 heures.
Virus de la vaccine
  appearance of papules: empêche l'apparition et le développement des papules virales
[2]
  destruction des cellules: - Pas de destruc-tion pendant 7 jours
Cellules cancéreuses; 150 µg par ml de culture
  destruction des cellules cancéreuses: détruites en 24-48 heures
[3]; [6]
  destruction des cellules: - Pas de destruc-tion pendant 7 jours
[3]; [8]
  destruction des cellules: Pas de destruction pendant 8 jours
Cellules saines; 150 µg par ml de culture
  destruction des cellules saines: ne sont pas détruites pendant les 7 jours d'observation
Virus de la grippe
  activity against influenza compared with sempervirine: résultats tout à fait comparables

## COC(=O)C1=CO[C@@H](C)[C@H]2Cn3ccc4c5ccccc5nc-4c3C[C@H]12 [serpentine]
Cellules K.B.; [7]
  destruction des cellules: Destruction totale en 24-48 heures
Cancers du sein; after one month, 100mg en microgranules par jour per os in two doses, after irradiation
  clinical outcome, case 1 (Madame M.): régression des deux tumeurs
Cancers du sein; bone metastases, sustained-release microgranules, 6 months of treatment
  clinical outcome, case 3 (Madame L.): La fracture du col du fémur se consolide ainsi que disparait la métastase calcanéenne
Cancers du sein; during 6 months of treatment, 100mg en microgranules par jour per os
  clinical outcome, case 1 (Madame M.): la tumeur du sein diminue et disparait alors que le squirrhe lui-même régresse considérablement
Cancers du sein; three months, microgranules 100 mg par jour per os in two doses, after radiotherapy and local excision
  clinical outcome, case 2 (Madame P.): la douleur qui persistait après l'intervention disparait progressivement et le sein prend un aspect normal et indolore
Ascite d'Ehrlich [4]
  survie and tumour evolution (in words): sans effet sur la survie définitive des souris
Tumeur MS 301
  POIDS MOYEN (en grammes) DES TUMEURS, AU 16è JOUR: 1,6 (compris entre 0,9 et 2,5) grammes
Cellules cancéreuses; 200 Mg par ml de culture, en 24 à 48 heures, K.B., Hela, Hep II, L
  destruction des cellules cancéreuses: toutes les cellules cancéreuses étaient détruites
[3]; [8]
  destruction des cellules: Pas de destruction pendant 8 jours
Ascite d'Ehrlich [5]; day 0
  survie (surviving mice/total): 10/10
Ascite d'Ehrlich [5]; day 25
  survie (surviving mice/total): 10/10
Ascite d'Ehrlich [5]; day 35
  survie (surviving mice/total): 0/10
Ascite d'Ehrlich [5]; each substance alone, treatment from day 4 or 5 for 10 to 15 days
  definitive arrest of the Ehrlich ascites tumour (in words): ne peuvent définitivement arrêter la tumeur ascitique d'Ehrlich
Ascite d'Ehrlich [5]; voie intrapéritonéale, doses as above, curves 2, 3, 4
  évolution de la tumeur d'Ehrlich (figure, weight of mice against days of treatment): net ralentissement du poids des tumeurs
Cellules saines; 200 Mg par ml de culture, au bout de huit jours d'observation, reins de singe, Vero, SIRC
  destruction des cellules saines: aucune destruction des cellules saines
Virus de la grippe
  activity against influenza compared with sempervirine: résultats tout à fait comparables

Reference: patent EP0059817A1, “Serpentine, alstonine and sempervirine drugs for the specific inhibition of tumurous and cancerous cells” (priority 1981, dated 1982)
